Test results as given in patent EP0359454B1, “CC-1065 analogs having two CPI subunits” (PHARMACIA & UPJOHN COMPANY, priority 1988, dated 1990).
≈ marks a conversion by molar mass, not a printed value.

How the values were obtained:
[1] = system: L1210 leukemia cells; test: In vitro L1210 cell growth inhibition; type: cell-based, murine; conditions: Mus musculus, concentration of drug which inhibits cell growth 50%, read-out: ID50 (the source's name)
Text: (§1) Table 3 presents data comparing [S-(R*,R*)]-6,6′-[carbonylbis(imino-1H-indole-5,2-dicarbonyl)]bis[8-chloromethyl)-3,6,7,8-tetrahydro-1-methyl-benzo[1,2-b:4,3-b′]dipyrrol-4-ol (Compound 1) with (7bR)-N-[2-[(4,5,8,8a-tetrahydro-7-methyl-4-oxocyclopropa-[C]pyrrolo[3,2-e]indol-2(1H)0yl)carbonyl]-1H-indol-5-yl]-2-benzofurancarboxamide (U-73,975) in the other murine systems where the compounds have been run jointly.

[2] = system: L-1210 Leukemia; test: L-1210 leukemia in vivo, IV drug vs IP tumor, dosed on day 1; set-up: species or system Male BDF1 mice; conditions: IV drug vs IP tumor, dosed on day 1; for Best T/C: T/C = median survival treated/control x 100, each value at the dose (1-600 µg/kg); for cures: animals surviving 30 days are considered cured, at the dose (µg/kg)
Text: as §1
The results set forth in Tables 1 and 4 were obtained using standard well known procedures (In Vivo Cancer, Models, NIH Publication No. 84-2635, 1984).
T/C refers to median life span of treated mice divided by median life span of control mice times 100.

SMILES | IC50 [1] [ng/mL] | Best T/C [2] | cures [2]
Cc1c[nH]c2c1C13CC1CN(C(=O)c1cc4cc(NC(=O)Nc5ccc6[nH]c(C(=O)N7CC8CC89C7=CC(=O)c7[nH]cc(C)c79)cc6c5)ccc4[nH]1)C3=CC2=O (stereo not drawn) [Compound 2, [7bR-[2(7′bR*,8′aS*), 7bR*,8aS*]]-2,2′-[carbonylbis(imino-1H-indole-5,2-dicarbonyl)]bis[1,2,8,8a-tetrahydro-7-methyl-cyclopropa(c)pyrrolo[3,2-e]indol-4(5H)-one] | 0.001 (≈ 0.00135 nM) | 169 | 
Cc1c[nH]c2c(O)cc3c(c12)[C@H](CCl)CN3C(=O)c1cc2cc(NC(=O)C(=O)Nc3ccc4[nH]c(C(=O)N5C[C@H](CCl)c6c5cc(O)c5[nH]cc(C)c65)cc4c3)ccc2[nH]1 [Compound 3, (R*,S*)-N,N′-bis[2-[[1-(chloromethyl)-1,6-dihydro-5-hydroxy-8-methylbenzo[1,2-b:4,3-b′]dipyrrol-3(2H)-yl]carbonyl]-1H-indol-5-yl]-ethanediamide] | 0.009 (≈ 0.0107 nM) | 106 | 
Cc1c[nH]c2c(O)cc3c(c12)[C@H](CCl)CN3C(=O)c1ccc(C(=O)N2C[C@@H](CCl)c3c2cc(O)c2[nH]cc(C)c32)[nH]1 [Compound 4, [S-(R*,R*)]-6,6′-(1H-pyrrole-2,5-diyldicarbonyl)bis[8-(chloromethyl)-3,6,7,8-tertrahydro-1-methyl-benzo[1,2-b:4,3-b′-]dipyrrol-4-ol] | 0.004 (≈ 0.00675 nM) | 156 | 
Cc1c[nH]c2c(O)cc3c(c12)[C@H](CCl)CN3C(=O)c1ccc(C(=O)N2C[C@@H](CCl)c3c2cc(O)c2[nH]cc(C)c32)o1 [Compound 5, [S-(R*,R*)]-6,6′-(2,5-furandiyldicarbonyl)bis[8-(chloromethyl)-3,6,7,8-tertrahydro-1-methyl-benzo[1,2-b:4,3′b′]dipyrrol-4-ol] | 0.01 (≈ 0.0169 nM) | 156 | 
Cc1c[nH]c2c(O)cc3c(c12)[C@H](CCl)CN3C(=O)c1cc2cc(NC(=O)c3ccc(C(=O)Nc4ccc5[nH]c(C(=O)N6C[C@@H](CCl)c7c6cc(O)c6[nH]cc(C)c76)cc5c4)o3)ccc2[nH]1 [Compound 6, [S-(R*,R*]-N,N′-bis[2-[[1-(chloromethyl)-1,6-dihydro-5-hydroxy-8-methylbenzo[1,2-b:4,3-b′]dipyrrol-3(2H)-yl]carbonyl]-1H-indol-5-yl]-2,5-furandicarboxamide] | 0.012 (≈ 0.0132 nM) | 178 | 1
Cc1c[nH]c2c(O)cc3c(c12)[C@H](CCl)CN3C(=O)c1cc2cc(NC(=O)c3ccc(C(=O)Nc4ccc5[nH]c(C(=O)N6C[C@@H](CCl)c7c6cc(O)c6[nH]cc(C)c76)cc5c4)[nH]3)ccc2[nH]1 [Compound 7, [S-(R*,R*)]-N,N′-bis[2[[1-(chloromethyl)-1,6-dihydro-5-hydroxy-8-methylbenzo[1,2-b:4,3-b′]dipyrrol-3(2H)-yl]carbonyl]-1H-indol-5-yl]-1H-pyrrole-2,5-dicarboxamide] | 0.004 (≈ 0.0044 nM) | 156 | 
Cc1c[nH]c2c(O)cc3c(c12)[C@H](CCl)CN3C(=O)c1cc2cc(NC(=O)CC(=O)Nc3ccc4[nH]c(C(=O)N5C[C@@H](CCl)c6c5cc(O)c5[nH]cc(C)c65)cc4c3)ccc2[nH]1 [Compound 8, [R-(R*,S*)]-N,N′-bis[2[[1-(chloromethyl)-1,6-dihydro-5-hydroxy-8-methylbenzo[1,2-b:4,3-b′]dipyrrol-3(2H)-yl]carbonyl]-1H-indol-5-yl]-propanediamide] | 0.006 (≈ 0.007 nM) | 194 | 
CC(=O)Oc1cc2c(c3c(C)c[nH]c13)[C@H](CCl)CN2C(=O)c1cc2cc(NC(=O)Nc3ccc4[nH]c(C(=O)N5C[C@@H](CCl)c6c5cc(OC(C)=O)c5[nH]cc(C)c65)cc4c3)ccc2[nH]1 [Compound 9, [S-(R*,R*)]-6,6′-[carbonylbis(imino-1H-indole-5,2-diylcarbonyl)bis[8-(chloromethyl)-3,6,7,8-tetrahydro-1-methyl-benzo[1,2-b:4,3-b′]dipyrrol-4-ol diacetate] |  | 165 | 
Cc1c[nH]c2c(O)cc3c(c12)[C@H](CCl)CN3C(=O)c1ccc2[nH]c(C(=O)N3C[C@@H](CCl)c4c3cc(O)c3[nH]cc(C)c43)cc2c1 [Compound 10, [S-(R*,R*)]-6,6′-(1H-indole-2,5-diyldicarbonyl)bis[8-(chloromethyl)-3,6,7,8-tetrahydro-1-methyl-benzo[1,2-b:4,3-b′]dipyrrol-4-ol] |  | 213 | 1
Cc1c[nH]c2c(O)cc3c(c12)[C@H](CCl)CN3C(=O)c1cc2cc(NC(=O)c3ccc4[nH]c(C(=O)Nc5ccc6[nH]c(C(=O)N7C[C@@H](CCl)c8c7cc(O)c7[nH]cc(C)c87)cc6c5)cc4c3)ccc2[nH]1 [Compound 11, [S-(R*,R*)]-N,N′-bis[2-[[1-(chloromethyl)-1,6-dihydro-5-hydroxy-8-methylbenzo[1,2-b:4,3-b′]dipyrrol-3(2H)-yl]carbonyl]-1H-indol-5-yl]-1H-indole-2,5-dicarboxamide] |  | 188 | 
Cc1c[nH]c2c(O)cc3c(c12)[C@H](CCl)CN3C(=O)c1cc2cc(NC(=O)c3ccc4[nH]c(C(=O)N5C[C@@H](CCl)c6c5cc(O)c5[nH]cc(C)c65)cc4c3)ccc2[nH]1 [Compound 12, [S-(R*,R*)]-2-[[1-(chloromethyl)-1,6-dihydro-5-hydroxy-8-methylbenzo[1,2-b:4,3-b′]dipyrrol-3(2H)-yl]carbonyl]-N-[3-[[1-(chloromethyl)-1,6-dihydro-5-hydroxy-8-methylbenzo[1,2-b:4,3-b′]dipyrrol-3(2H)-yl]carbonyl]-1H-indol-6-yl]-1H-indole-5-carboxamide] |  | 181 | 
Cc1c[nH]c2c(O)cc3c(c12)[C@H](CCl)CN3C(=O)c1ccc2[nH]c(C(=O)Nc3ccc4[nH]c(C(=O)N5C[C@@H](CCl)c6c5cc(O)c5[nH]cc(C)c65)cc4c3)cc2c1 [Compound 13, [S-(R*,R*)]-5-[[1-(chloromethyl)-1,6-dihydro-5-hydroxy-8-methylbenzo[1,2-b:4,3-b′]dipyrrol-3(2H)-yl]-carbonyl)-N-[2-[[1-(chloromethyl)-1,6-dihydro-5-hydroxy-8-methylbenzo[1,2-b:4,3-b′]dipyrrol-3(2H)-yl]carbonyl)-1H-indol-5-yl]-1H-indole-2-carboxamide] |  | 188 | 
Cc1c[nH]c2c(OC(=O)C(C)(C)C)cc3c(c12)[C@H](CCl)CN3C(=O)c1cc2cc(NC(=O)Nc3ccc4[nH]c(C(=O)N5C[C@@H](CCl)c6c5cc(OC(=O)C(C)(C)C)c5[nH]cc(C)c65)cc4c3)ccc2[nH]1 [Compound 14, [S-(R*,R*)]-carbonylbis[imino-1H-indole-5,2-diylcarbonyl[1-(chloromethyl)-1,6-dihydro-8-methylbenzo[1,2-b:4,3-b′]dipyrrole-3,5(2H)-diyl]]ester, 2,2-dimethylpropanoic acid] |  | 156 | 
CCCCCCCCCC(=O)Oc1cc2c(c3c(C)c[nH]c13)[C@H](CCl)CN2C(=O)c1cc2cc(NC(=O)Nc3ccc4[nH]c(C(=O)N5C[C@@H](CCl)c6c5cc(OC(=O)CCCCCCCCC)c5[nH]cc(C)c65)cc4c3)ccc2[nH]1 [Compound 15, [S-(R*,R*)]-carbonylbis[imino-1H-indole-5,2-diylcarbonyl[1-(chloromethyl)-1,6-dihydro-8-methylbenzo[1,2-b:4,3-b′]dipyrrole-3,5(2H)-diyl]]ester, decanoic acid] | 0.001 (≈ 0.00089 nM) | 243 | 1
Cc1c[nH]c2c(O)cc3c(c12)[C@H](CCl)CN3C(=O)c1cc2c3c(ccc2[nH]1)N(C(=O)N1CCc2c1ccc1[nH]c(C(=O)N4C[C@@H](CCl)c5c4cc(O)c4[nH]cc(C)c54)cc21)CC3 [Compound 16, [S-(R*,R*)]-6,6′-[carbonylbis[(7,8-dihydrobenzo[1,2-b:4,3-b′]dipyrrole-6,2(3H)-diyl)carbonyl]]bis[8-chloromethyl)-3,6,7,8-tetrahydro-1-methyl-benzo[1,2-b:4,3b′]dipyrrol-4-ol] | 0.002 (≈ 0.0023 nM) | 243 | 1/6
